# Source: PubChem BioAssay AID342 (DTP/NCI, 2004)
# Values joined by “and” are separate entries in the source; they are usually repeats but may differ in a detail not shown here. Equal values may be shown once.
# Tested on: Swiss mice, Sarcoma 180 sc, mean tumor weight T/C
# Test: NCI In Vivo Anticancer Drug Screen. Data for tumor model Sarcoma 180 (subcutaneous) in Swiss mice
# Conditions: endpoint: mean tumor weight, higher = larger tumour
# Protocol: The antitumor activity of compounds was measured in mice bearing transplantable tumors. Survival or tumor size were measured and the results are expressed as the measurement made in the treated group (T) divided by the measurement made in the vehicle treated control group (C). The tumor model used in this assay is Sarcoma 180 (subcutaneous) in Swiss mice
compound,measurement,setting,value
CCCCCCCCCCCCNCCCCCCCCCCCC,T/C,"dose: 2.5 mg/kg/injection, schedule: Q01DX007 (ip), vehicle: water",107 % of control
same,T/C,"dose: 5.0 mg/kg/injection, schedule: Q01DX007 (ip), vehicle: water",54 % of control
same,T/C,"dose: 7.5 mg/kg/injection, schedule: Q01DX007 (ip), vehicle: water",60 % of control
same,T/C,"dose: 10.0 mg/kg/injection, schedule: Q01DX007 (ip), vehicle: water",44 % of control
CC[C@]1(O)C[C@H]2CN(CCc3c([nH]c4ccccc34)[C@@](C(=O)OC)(c3cc4c(cc3OC)N(C=O)[C@H]3[C@@](O)(C(=O)OC)[C@H](OC(C)=O)[C@]5(CC)C=CCN6CC[C@]43[C@@H]65)C2)C1,T/C,"dose: 0.12 mg/kg/injection, schedule: Q01DX007 (ip), vehicle: saline",57 % of control
ClCc1c2ccccc2c(CCl)c2ccccc12,T/C,"dose: 0.25 mg/kg/injection, schedule: Q01DX007 (ip), vehicle: methylcellulose (MC)",95 % of control
same,T/C,"dose: 0.5 mg/kg/injection, schedule: Q01DX007 (ip), vehicle: methylcellulose (MC)",89 % of control
same,T/C,"dose: 1.0 mg/kg/injection, schedule: Q01DX007 (ip), vehicle: methylcellulose (MC)",122 % of control
same,T/C,"dose: 1.5 mg/kg/injection, schedule: Q01DX007 (ip), vehicle: methylcellulose (MC)",72 % of control
same,T/C,"dose: 1.8 mg/kg/injection, schedule: Q01DX007 (ip), vehicle: other",22 % of control
same,T/C,"dose: 1.8 mg/kg/injection, schedule: Q01DX007 (ip), vehicle: saline",113 % of control
same,T/C,"dose: 2.0 mg/kg/injection, schedule: Q01DX007 (ip), vehicle: methylcellulose (MC)",72 % of control
same,T/C,"dose: 2.6 mg/kg/injection, schedule: Q01DX007 (ip), vehicle: other",23 % of control
same,T/C,"dose: 2.6 mg/kg/injection, schedule: Q01DX007 (ip), vehicle: saline",102 % of control
same,T/C,"dose: 4.0 mg/kg/injection, schedule: Q01DX007 (ip), vehicle: other",26 % of control
same,T/C,"dose: 6.0 mg/kg/injection, schedule: Q01DX007 (ip), vehicle: other",17 % of control
same,T/C,"dose: 9.0 mg/kg/injection, schedule: Q01DX007 (ip), vehicle: saline",40 % of control
CN(C)[C@@H]1C(=O)C(C(=O)NCNC(CO)(CO)CO)=C(O)[C@@]2(O)C(=O)C3=C(O)c4c(O)cccc4[C@@](C)(O)[C@H]3C[C@@H]12,T/C,"dose: 55.0 mg/kg/injection, schedule: Q#A X014 (ip), vehicle: saline",65 % of control
same,T/C,"dose: 83.0 mg/kg/injection, schedule: Q#A X014 (ip), vehicle: saline",93 % of control
same,T/C,"dose: 100.0 mg/kg/injection, schedule: Q01DX007 (ip), vehicle: methylcellulose (MC)",83 % of control
same,T/C,"dose: 100.0 mg/kg/injection, schedule: Q01DX007 (ip), vehicle: saline",119 % of control
same,T/C,"dose: 125.0 mg/kg/injection, schedule: Q#A X014 (ip), vehicle: saline",52 % of control
same,T/C,"dose: 140.0 mg/kg/injection, schedule: Q01DX007 (ip), vehicle: methylcellulose (MC)",62 % of control
same,T/C,"dose: 140.0 mg/kg/injection, schedule: Q01DX007 (ip), vehicle: saline",83 % of control
same,T/C,"dose: 210.0 mg/kg/injection, schedule: Q01DX007 (ip), vehicle: methylcellulose (MC)",38 % of control
same,T/C,"dose: 210.0 mg/kg/injection, schedule: Q01DX007 (ip), vehicle: other",86 % of control
same,T/C,"dose: 210.0 mg/kg/injection, schedule: Q01DX007 (ip), vehicle: saline",65 % of control
same,T/C,"dose: 320.0 mg/kg/injection, schedule: Q01DX007 (ip), vehicle: methylcellulose (MC)",33 % of control
O=P(N1CCCC1)(N1CC1)N1CC1,T/C,"dose: 1.0 mg/kg/injection, schedule: Q#A X014 (ip), vehicle: saline",50 % of control and 54 % of control
same,T/C,"dose: 1.3 mg/kg/injection, schedule: Q#A X014 (ip), vehicle: carboxymethylcellulose (CMC)",76 % of control
same,T/C,"dose: 1.5 mg/kg/injection, schedule: Q#A X014 (ip), vehicle: saline",10 % of control and 22 % of control
same,T/C,"dose: 2.0 mg/kg/injection, schedule: Q#A X014 (ip), vehicle: carboxymethylcellulose (CMC)",66 % of control
same,T/C,"dose: 2.0 mg/kg/injection, schedule: Q#A X014 (ip), vehicle: saline",15 % of control
same,T/C,"dose: 3.0 mg/kg/injection, schedule: Q#A X014 (ip), vehicle: carboxymethylcellulose (CMC)",46 % of control
same,T/C,"dose: 8.0 mg/kg/injection, schedule: Q01DX007 (ip), vehicle: carboxymethylcellulose (CMC)",23 % of control
same,T/C,"dose: 12.0 mg/kg/injection, schedule: Q01DX007 (ip), vehicle: carboxymethylcellulose (CMC)",11 % of control
